Measurements taken from patent publication US12600728B2, “Interleukin-17 inhibitors” (priority 2020, dated 2026).

Key:
[1] = molecular target: recombinant human IL-17AA (Homo sapiens, UniProt Q16552); experiment: IL-6 release from NHDF cells, IL-17AA plus TNF-α stimulation; type: cell-based; details: NHDF cells, IL-17AA 30 pM + TNF-α 6 pM, 24 hours, IL-6 by ELISA; read-out: IL17AA + TNF IC50 IL-6
In short: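 IL-17-specific IL-6 release from NHDF cells adhered overnight; compounds pre-incubated 30 min at room temperature with human IL-17AA plus TNF-α, then 24 h on cells at 37° C. Final DMSO 0.1% or plasma 20%; IL-6 by ELISA (450 nm). TNF-α-only IL-6 subtracted before IC50 fit.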

[2] = molecular target: biotinylated human IL-17A / AF647-labeled human IL-17RA (Homo sapiens, UniProt Q16552); experiment: Human IL-17A×IL-17RA TR-FRET assay; type: binding; details: TR-FRET, 5 nM IL-17A, 30 nM IL-17RA; read-out: IL17AA FRET/ IL17Rawt IC50
Sequence of biotinylated human IL-17A / AF647-labeled human IL-17RA (Q16552 24-155): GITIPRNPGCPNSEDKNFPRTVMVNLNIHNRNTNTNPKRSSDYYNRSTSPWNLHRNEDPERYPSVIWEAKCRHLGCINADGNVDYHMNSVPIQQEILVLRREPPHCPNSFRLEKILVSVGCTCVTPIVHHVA
In short: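 Compounds tested in duplicate at each concentration; neutral controls contain all components with DMSO in place of compound.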

Sequence of recombinant human IL-17AA (Q16552 24-155): as above

| IC50 [1] [nM] | IC50 [2] [nM] | SMILES |
| --- | --- | --- |
| 60 | 13.9 | Cc1c(-c2ccc(NC(=O)[C@@H](NC(=O)c3ccc4n3CCNC4)C3CCC(F)(F)CC3)cc2F)c(Cl)cc[n+]1[O-] [Example 179, 4-chloro-3-(4-((S)-2-(4,4-difluorocyclohexyl)-2-(1,2,3,4-tetrahydropyrrolo[1,2-a]pyrazine-6-carboxamido)acetamido)-2-fluorophenyl)-2-methylpyridine 1-oxide] |
| 372 | 52 | Cc1cc[n+]([O-])c(C)c1-c1ccc(NC(=O)[C@H](Cc2ccccc2Cl)NC(=O)c2ccnn2C)cc1 [Example 180, (S)-3-(4-(3-(2-chlorophenyl)-2-(1-methyl-1H-pyrazole-5-carboxamido)propanamido)phenyl)-2,4-dimethylpyridine 1-oxide] |
| 44.5 | 61.2 | Cc1c(-c2ccc(NC(=O)C(NC(=O)c3ccnn3C)C3CCCC(F)C3)cc2)c(Cl)cc[n+]1[O-] (stereo not shown) [Example 182, 4-chloro-3-(4-(2-(3-fluorocyclohexyl)-2-(1-methyl-1H-pyrazole-5-carboxamido)acetamido)phenyl)-2-methylpyridine 1-oxide] |
| 42 | 54.1 | Cc1c(-c2ccc(NC(=O)[C@@H](NC(=O)c3ccnn3C)[C@H]3CCCC(F)(F)C3)cc2)c(C(F)(F)F)cc[n+]1[O-] [Example 183, 3-(4-((S)-2-((S)-3,3-difluorocyclohexyl)-2-(1-methyl-1H-pyrazole-5-carboxamido)acetamido)phenyl)-2-methyl-4-(trifluoromethyl)pyridine 1-oxide] |
| 11 | 59.9 | CC(=O)N1CCn2c(ccc2C(=O)N[C@H](C(=O)Nc2ccc(-c3c(Cl)cc[n+]([O-])c3C)cc2F)C2CCCCC2)C1 [Example 184, (S)-3-(4-(2-(2-acetyl-1,2,3,4-tetrahydropyrrolo[1,2-a]pyrazine-6-carboxamido)-2-cyclohexylacetamido)-3-fluorophenyl)-4-chloro-2-methylpyridine 1-oxide] |
| 9.75 | 77.1 | CC(=O)N1CCn2ccc(C(=O)N[C@H](C(=O)Nc3ccc(-c4c(C)cc[n+]([O-])c4C)cc3)C3CCCCCC3)c2C1 [Example 185, (S)-3-(4-(2-(2-acetyl-1,2,3,4-tetrahydropyrrolo[1,2-a]pyrazine-8-carboxamido)-2-cycloheptylacetamido)phenyl)-2,4-dimethylpyridine 1-oxide] |
| 34 | 81.5 | Cc1c(-c2ccc(NC(=O)C(NC(=O)c3ccc4n3CCNC4)C3CCCc4ccccc43)cc2F)c(Cl)cc[n+]1[O-] [Example 186, 4-chloro-3-(2-fluoro-4-((S)-2-((S)-1,2,3,4-tetrahydronaphtha]en-1-yl)-2-(1,2,3,4-tetrahydropyrrolo[1,2-a]pyrazine-6-carboxamido)acetamido)phenyl)-2-methylpyridine 1-oxide] |
| 17 | 85.4 | CC(=O)N1CCn2c(ccc2C(=O)N[C@H](C(=O)Nc2ccc(-c3c(Cl)cc[n+]([O-])c3C)c(F)c2)C2CCCCC2)C1 [Example 187, 3-(4-((S)-2-(2-acetyl-1,2,3,4-tetrahydropyrrolo[1,2-a]pyrazine-6-carboxamido)-2-cyclohexylacetamido)-2-fluorophenyl)-4-chloro-2-methylpyridine 1-oxide] |
| 6.05 | 104 | CC(=O)N1CCn2c(ccc2C(=O)N[C@H](C(=O)Nc2ccc(-c3c(C)cc[n+]([O-])c3C)cc2)C2CCCCCC2)C1 [Example 188, (S)-3-(4-(2-(2-acetyl-1,2,3,4-tetrahydropyrrolo[1,2-a]pyrazine-6-carboxamido)-2-cycloheptylacetamido)phenyl)-2,4-dimethylpyridine 1-oxide] |
| 15.5 | 118 | Cc1cc[n+]([O-])c(C)c1-c1ccc(NC(=O)[C@@H](NC(=O)c2ccn3c2CNCC3)C2CCCCCC2)cc1 [Example 189, (S)-3-(4-(2-cycloheptyl-2-(1,2,3,4-tetrahydropyrrolo[1,2-a]pyrazine-8-carboxamido)acetamido)phenyl)-2,4-dimethylpyridine 1-oxide] |
| 278 | 123 | Cc1cc[n+]([O-])c(C)c1-c1ccc(NC(=O)[C@H](Cc2ccccc2Cl)NC(=O)c2ccc3n2CCNC3)cc1 [Example 190, (S)-3-(4-(3-(2-chlorophenyl)-2-(1,2,3,4-tetrahydropyrrolo[1,2-a]pyrazine-6-carboxamido)propanamido)phenyl)-2,4-dimethylpyridine 1-oxide] |
| 18.5 | 128 | CC(=O)N1CCn2c(ccc2C(=O)N[C@H](C(=O)Nc2ccc(-c3c(C(F)(F)F)cc[n+]([O-])c3C)cc2)C2CCCCC2)C1 [Example 191, (S)-3-(4-(2-(2-acetyl-1,2,3,4-tetrahydropyrrolo[1,2-a]pyrazine-6-carboxamido)-2-cyclohexylacetamido)phenyl)-2-methyl-4-(trifluoromethyl)pyridine 1-oxide] |
| 47 | 97.3 | Cc1cc[n+]([O-])c(C)c1-c1ccc(NC(=O)[C@@H](NC(=O)c2ccnn2C)C(c2ccccc2)c2ccccc2)cc1 [Example 193, (S)-2,4-dimethyl-3-(4-(2-(1-methyl-1H-pyrazole-5-carboxamido)-3,3-diphenylpropanamido)phenyl)pyridine 1-oxide] |
| 47 | 165 | CC(=O)N1CCn2c(ccc2C(=O)NC(C(=O)Nc2ccc(-c3c(Cl)cc[n+]([O-])c3C)c(F)c2)[C@H]2C[C@@H]3C[C@@H]3C2)C1 (stereo partly drawn) [Example 194, 3-(4-(2-(2-acetyl-1,2,3,4-tetrahydropyrrolo[1,2-a]pyrazine-6-carboxamido)-2-((1R,3s,5S)-bicyclo[3.1.0]hexan-3-yl)acetamido)-2-fluorophenyl)-4-chloro-2-methylpyridine 1-oxide] |
| 28.5 | 178 | CC(=O)N1CCn2c(ccc2C(=O)N[C@H](C(=O)Nc2ccc(-c3c(C)cc[n+]([O-])c3C)cc2F)C2CCCCCC2)C1 [Example 195, (S)-3-(4-(2-(2-acetyl-1,2,3,4-tetrahydropyrrolo[1,2-a]pyrazine-6-carboxamido)-2-cycloheptylacetamido)-3-fluorophenyl)-2,4-dimethylpyridine 1-oxide] |
| 12.6 | 181 | Cc1c(-c2ccc(NC(=O)[C@@H](NC(=O)c3ccc4n3CCNC4)C3CCC(F)(F)CC3)cc2)c(Cl)cc[n+]1[O-] [Example 196, (S)-4-chloro-3-(4-(2-(4,4-difluorocyclohexyl)-2-(1,2,3,4-tetrahydropyrrolo[1,2-a]pyrazine-6-carboxamido)acetamido)phenyl)-2-methylpyridine 1-oxide] |
| 121 | 213 | Cc1cc[n+]([O-])c(C)c1-c1ccc(NC(=O)[C@@H](NC(=O)c2ccnn2C)[C@H]2CCC[C@H](F)CC2)cc1 [Example 197, 3-(4-((S)-2-((1S,4S)-4-fluorocycloheptyl)-2-(1-methyl-1H-pyrazole-5-carboxamido)acetamido)phenyl)-2,4-dimethylpyridine 1-oxide] |
| 11.5 | 237 | CC(=O)N1CCn2c(ccc2C(=O)N[C@H](C(=O)Nc2ccc(-c3c(Cl)cc[n+]([O-])c3C)cc2)C2CCCCC2)C1 [Example 199, (S)-3-(4-(2-(2-acetyl-1,2,3,4-tetrahydropyrrolo[1,2-a]pyrazine-6-carboxamido)-2-cyclohexylacetamido)phenyl)-4-chloro-2-methylpyridine 1-oxide] |
| 416 | 246 | Cc1cc[n+]([O-])c(C)c1-c1ccc(NC(=O)[C@@H](NC(=O)c2ccc3n2CCNC3)C2CCC(F)CC2)cc1 (stereo partly drawn) [Example 200, 3-(4-((2S)-2-(4-fluorocyclohexyl)-2-(1,2,3,4-tetrahydropyrrolo[1,2-a]pyrazine-6-carboxamido)acetamido)phenyl)-2,4-dimethylpyridine 1-oxide] |
| 61 | 252 | Cc1cc[n+]([O-])c(C)c1-c1ccc(NC(=O)C(NC(=O)c2ccc3n2CCNC3)C2CC3CC3C2)cc1 [Example 201, 3-(4-((S)-2-((1R,3r,5S)-bicyclo[3.1.0]hexan-3-yl)-2-(1,2,3,4-tetrahydropyrrolo[1,2-a]pyrazine-6-carboxamido)acetamido)phenyl)-2,4-dimethylpyridine 1-oxide] |
| 73 | 257 | Cc1cc[n+]([O-])c(C)c1-c1ccc(NC(=O)[C@@H](NC(=O)c2ccc3n2CCNC3)C2CCCCCC2)cc1 [Example 202, (S)-3-(4-(2-cycloheptyl-2-(1,2,3,4-tetrahydropyrrolo[1,2-a]pyrazine-6-carboxamido)acetamido)phenyl)-2,4-dimethylpyridine 1-oxide] |
| 39 | 257 | Cc1c(-c2ccc(NC(=O)C(NC(=O)c3ccc4n3CCN(C)C4)C3CC4CC4C3)cc2F)c(Cl)cc[n+]1[O-] (stereo not shown) [Example 203, 3-(4-(2-(bicyclo[3.1.0]hexan-3-yl)-2-(2-methyl-1,2,3,4-tetrahydropyrrolo[1,2-a]pyrazine-6-carboxamido)acetamido)-2-fluorophenyl)-4-chloro-2-methylpyridine 1-oxide] |
| 95 | 278 | Cc1cc[n+]([O-])c(C)c1-c1ccc(NC(=O)C(NC(=O)c2ccc3n2CCNC3)C2CC3CC3C2)cc1 [Example 204, 3-(4-((S)-2-((1R,3s,5S)-bicyclo[3.1.0]hexan-3-yl)-2-(1,2,3,4-tetrahydropyrrolo[1,2-a]pyrazine-6-carboxamido)acetamido)phenyl)-2,4-dimethylpyridine 1-oxide] |
